From US12702692B2, “Therapeutic use of calcium-activated chloride channel peptide activator” (CENTRE NATIONAL DE LA RECHERCHE SCIENTIFIQUE, priority 2020, dated 2026) come the findings set out here.

Assay [1] is described as follows: Acute effect on tear fluid secretion (tearing rate, phenol red thread) in naive rats. The assay is classed as in vivo, Sprague-Dawley rats. Here is the method:
Sprague-Dawley rats (males, around 200 g) were purchased from Charles River and adapted one week before processing the experiment. Two-three rats per cage were housed in a controlled environment of 12 hours intervals of light/dark cycles and free access to food and water. Animal experiments were approved by the Animal Care and Use Committee of the University of Barcelona (CEEA) and the […] de Territori i Sostenibilitat of Generalitat de Catalunya, Catalonia, Spain (319/19; 10935) and followed the ethical guidelines of the International Association for the Study of Pain. […] (also named Nter 13 peptide or […] NO: 2)) and scramble ([…] NO: 7)) peptides were purchased from GenScript Biotech (Leiden, Netherlands) and provided by CNRS. Both peptides were dissolved in Phosphate Buffered Saline (PBS) at 10 mM and used for topical ocular application (5 ul per eye). Tear fluid secretion (tearing rate) was measured using phenol red threads (Zone-Quick, Menicon, Nagoya, Japan) placed on the lower eyelid for 30 s without topical anesthesia (Trost, 2007; Acosta 2013). Tearing rate was determined with an accuracy of ±0.5 mm by measurement of the length of the red portion of the thread. After habituation of the animals, basal tearing rate was measured in both eyes before any topical application of peptides. Then, animals were divided in different groups and a solution containing vehicle (PBS), amiloride (1 mM), peptide N13 or peptide scramble was topically applied to the ocular surface (5 μl) and tearing rate was measured at 1, 3, 6, 12 and 24 h. Tearing rate measurements were done blind to the treatment received by the animals. Data are presented as mean±standard error of the mean (SEM). Statistical differences between different sets of data were assessed by performing repeated measured One-way ANOVA plus Bonferroni's post-tests (each data point in an experimental group vs. basal values) or repeated measured Two-way ANOVA plus Bonferroni's post-tests (each data point in […] group vs. Scramble or Vehicle group; or point in […] or amiloride groups vs. Vehicle group) using Prism 9 (GraphPad Software, San Diego, CA). The significance level was set at p<0.05 in all statistical analyses.

Assay [2] in a line: Tear fluid secretion in dry eye model (surgical removal of exorbital lachrymal gland). The assay is classed as in vivo, Sprague-Dawley rats. The following applies: N13ter 10 mM topical. The protocol: Sprague-Dawley rats (males, around 200 g) were purchased from Charles River and adapted one week before processing the experiment. Two-three rats per cage were housed in a controlled environment of 12 hours intervals of light/dark cycles and free access to food and water. Animal experiments were approved by the Animal Care and Use Committee of the University of Barcelona (CEEA) and the Departament de Territori i Sostenibilitat of Generalitat de Catalunya, Catalonia, Spain (319/19; 10935) and followed the ethical guidelines of the International Association for the Study of Pain.
N13ter (also named Nter 13 peptide or N13) ([…] (SEQ ID NO: 2)) and scramble ([…] (SEQ ID NO: 7)) peptides were purchased from GenScript Biotech (Leiden, Netherlands) and provided by CNRS. Both peptides were dissolved in Phosphate Buffered Saline (PBS) at 10 mM and used for topical ocular application (5 ul per eye).
Tear fluid secretion (tearing rate) was measured using phenol red threads (Zone-Quick, Menicon, Nagoya, Japan) placed on the lower eyelid for 30 s without topical anesthesia (Trost, 2007; Acosta 2013). Tearing rate was determined with an accuracy of ±0.5 mm by measurement of the length of the red portion of the thread.
To establish a dry eye model, a similar procedure to those previously described was used (Callejo 2015, Pain; 156(3):483-495, Kovacs, 2016, Pain.; 157(2):399-417). Rats were intraperitoneally anaesthetized with ketamine/xylacine (80:10 mg/kg). […] Tear fluid secretion was measured in both eyes before (basal) and once a week at 1, 2, 3 and 4 weeks after surgery using phenol red threads (Zone-Quick, Menicon, Nagoya, Japan) placed on the lower eyelid for 30 s without topical anesthesia (Trost, 2007; Acosta 2013). Tearing rate was determined with an accuracy of ±0.5 mm by measurement of the length of the red portion of the thread. After tearing rate measurement on week 4, animals were divided in two groups and a solution containing one of the peptides (N13ter or PBS) was topically applied to the ocular surface (5 μl) and tearing rate was measured at 1, 3, 6, 12 and 24 h. […]

Where only a bound is given, the exact number is not on record here.

As to “LARRSPRSSDGKL (SEQ ID NO: 2) (amino acid residues between positions 30 to 42 of the human KCNE1 protein sequence) [N13ter]”, the “tearing rate at 6 h” value in assay [1] (10 mM topical, 5 μl per eye, n=20 eyes, basal 7.65±0.49 mm (N13ter)) was 9.65±0.57 mm. The “tearing rate at 12 h” value in assay [1] (10 mM topical, 5 μl per eye, n=20 eyes, basal 7.65±0.49 mm (N13ter), 8.10±0.54 mm (Scramble)) was 8.85±0.73 mm. For the same sequence, the “tearing rate at 12 h” value in assay [1] (N13ter 10 mM topical, vehicle/amiloride study, n=12 eyes, basal 4.53±0.43) was found to be 6.66±0.64 mm. Besides, the “time after application at which the enhancing effect becomes significant” value in assay [1] (N13ter 10 mM vs scramble peptide) fell in the range of 6 to 12 h. Also, the “effect on tearing rate compared with Vehicle” value in assay [1] (N13ter 10 mM, amiloride 1 mM, vehicle PBS) is listed as “significant increase in tearing rate”. In addition, the “effect on tearing rate” value in assay [1] (N13ter vs Scramble study, both 10 mM topical) is recorded as “small but significant increase in tearing rate”. The “effect on tearing rate vs vehicle, pooled data” value in assay [1] (all N13ter 10 mM studies pooled, n=32 eyes, normalized to basal) was “statistically significant effect at 1, 3, 6, 12 and 24 h, obtaining the maximal increase at 6 and 12 h”. Besides, in assay [2], the “effect on tearing rate vs vehicle” value is given as “statistically significant compared to vehicle group” and the “time to return to basal values” is not above 24 h. Moreover, in assay [2] (n=14 eyes, 5 weeks basal 4.04±0.49 mm), the “tearing rate at 3 h (peak)” value is given as 6.54±0.78 mm.
